# Data taken from patent US6562871B1, “Dry granulation of pharmaceutical formulation comprising mexiletine” (Boehringer Ingelheim Pharmaceuticals, Inc., priority 2000, dated 2003).
# Like-named read-outs stand apart in the source and are kept apart here.
# Key:
# Pour and tap density = format: physicochemical; settings: average of two measurements
# Procedure: Pour and tap density were tested using a Van Kel dual tapper and a 100 mL fluted graduate. The tare weight of the graduate was determined. It was then filled by pouring the powder into the graduate to approximately 70 mL. The net weight was next determined and a pour density calculated by dividing the net weight by the observed volume. Tap density was determined by allowing the graduate to tap 1000 times and reading the new volume. Tap density was calculated by dividing the net weight by the new “tap” volume. Both measurements were expressed in grams/mL. Results were reported as the average of two measurements.
# [1] = Flow studies (funnel flow rate, angle of repose); format: physicochemical
# Procedure: The flow studies were performed using a ring stand and funnel set-up, such that the funnel was perpendicular to the table flat surface and the tip of the funnel was 6 inches from the table flat surface. The funnel was plastic with the following dimensions: upper diameter, 150 mm, lower diameter 24 mm, and overall length 135 mm. To the upper, wider diameter of the funnel a vibrator was placed touching the outer perimeter. The vibrator was set on its dial such that the indicator was in the 3 o'clock position. Fifty grams of material was placed into the funnel while holding a piece of cardboard under it. The vibrator was started, and the cardboard was removed while simultaneously starting a timer. The time for the fifty grams to pass through a funnel was recorded. The angle of repose, the maximum angle that can be obtained between the free standing surface of a powder heap and the horizontal plane, was calculated according to: […]
# Where h is the height of the powder heap and D is the diameter of the base of the powder heap. Tests were performed in duplicate.
# [2] = Procedure: Particle size and distribution was determined by suspending a sample of powder in mineral oil on a hemacytometer and counting particles in the size ranges: 1-5, 5-10, 10-25, 25-50, 50-100, 100-200, >200 μm using a polarizing light microscope. At least 200 particles were counted.
# Maximum and minimum particle sizes were determined with a large sampling using a low power, stereo microscope. The sample was suspended in a well slide filled with mineral oil. Measurements of the largest and smallest particles were made with a calibrated reticule.
# [3] = Compressional force profiles; format: physicochemical; settings: slugs on hydraulic press, FIG. 1 and FIG. 2
# Text: Compressional force profiles were generated on a calibrated Carver press using 12 mm standard cup punches and matching die. The punches and die were dusted with magnesium stearate to facilitate the release of the slug from the die. Five hundred milligram aliquots of drug substance were weighed and individually loaded into the die for compression. Slugs were compressed at 1000, 2000, 3000, 4000, 5000, 6000, 7000 and 8000 pounds gauge force (unless otherwise noted). Gauge force readings were corrected based on the calibration for that gauge and press. The compressed slugs for each representative force were weighed on a four place balance and measured for thickness. Pressure, volume and density were calculated using slug (tablet) geometry and area.
smiles,measurement,setting,value
"Cc1cccc(C)c1OCC(C)N (centres unmarked) [Mexiletine Drug Substance, 1-(2,6-dimethyl-phenoxy)-2-propanamine]",Tap Density,Pour and tap density; 1000 taps,0.35 g/mL
same,Bulk Density,Pour and tap density; pour density,0.22 g/mL
same,Angle of Repose,[1],62 °
same,Flow Rate,"[1]; 50 g through funnel, vibrator assisted",2.1 g/s
same,"Particle Size Distribution, % by number",[2]; size range 1-5 μm,32.0%
same,"Particle Size Distribution, % by number",[2]; size range 5-10 μm,23.3%
same,"Particle Size Distribution, % by number",[2]; size range 10-25 μm,37.9%
same,"Particle Size Distribution, % by number",[2]; size range 25-50 μm,6.6%
same,"Particle Size Distribution, % by number",[2]; size range 50-100 μm,0.2%
same,"Particle Size Distribution, % by number",[2]; size range 100-200 μm,0.0%
same,"Particle Size Distribution, % by number",[2]; size range >200 μm,0.0%
same,Size of larger particles,"[2]; well slide technique, larger sample sizes, very few",150 μm
same,Compressibility (density vs pressure),[3]; listed as drug substance,very compressible
same,Compressibility (density vs pressure),[3]; listed as mexiletine drug substance,very good compressional characteristics
